Experimental data taken from ChEMBL document CHEMBL1201862, “PubChem BioAssay data set” (2004).
Activity calls are given as the source filed them.

How the values were obtained:
[1] = biological target: T1, High affinity choline transporter 1 (Homo sapiens, UniProt Q9GZV3); test: CHT inhibitors, dose response, cell-based, 5-point CRC, membrane potential dye (AID 504840); assay type: functional
T1 sequence (Q9GZV3 whole entry): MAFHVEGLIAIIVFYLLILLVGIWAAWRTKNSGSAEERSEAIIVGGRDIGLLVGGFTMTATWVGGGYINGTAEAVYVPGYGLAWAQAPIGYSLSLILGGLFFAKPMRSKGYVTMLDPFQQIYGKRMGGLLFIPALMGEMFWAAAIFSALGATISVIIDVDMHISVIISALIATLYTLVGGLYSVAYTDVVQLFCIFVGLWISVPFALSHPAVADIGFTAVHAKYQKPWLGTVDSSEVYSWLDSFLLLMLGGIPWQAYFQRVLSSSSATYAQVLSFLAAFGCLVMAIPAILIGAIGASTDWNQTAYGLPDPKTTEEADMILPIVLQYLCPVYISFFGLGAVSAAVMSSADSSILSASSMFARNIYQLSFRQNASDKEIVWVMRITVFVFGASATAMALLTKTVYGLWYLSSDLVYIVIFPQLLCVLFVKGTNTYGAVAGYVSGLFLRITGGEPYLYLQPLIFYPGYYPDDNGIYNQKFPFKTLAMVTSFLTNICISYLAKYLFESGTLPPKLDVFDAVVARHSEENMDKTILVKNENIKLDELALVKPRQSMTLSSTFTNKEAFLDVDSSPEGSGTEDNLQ

[2] = biological target: Ras and Rab interactor 1/Tyrosine-protein kinase ABL1 (Homo sapiens, UniProt P00519+Q13671); assay type: functional;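 also: biochemical TR-FRET dose-response test measuring inhibition of binding between Rin1 and Abl proteins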
[3] = biological target: Intestinal-type alkaline phosphatase (Mus musculus, UniProt P24822); test: PubChem AID 488785; assay type: functional
[4] = biological target: T2, RNA-binding protein pos-1 (Caenorhabditis elegans, UniProt G5EF15); test: inhibitors of POS-1/mex-3 RNA binding, dose response, biochemical, fluorescence polarization (AID 1964);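 also: purified POS-1 fused to maltose binding protein made in E. coli; potency of compounds blocking POS-1 binding to fluorescent RNA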
T2 sequence (G5EF15 whole entry): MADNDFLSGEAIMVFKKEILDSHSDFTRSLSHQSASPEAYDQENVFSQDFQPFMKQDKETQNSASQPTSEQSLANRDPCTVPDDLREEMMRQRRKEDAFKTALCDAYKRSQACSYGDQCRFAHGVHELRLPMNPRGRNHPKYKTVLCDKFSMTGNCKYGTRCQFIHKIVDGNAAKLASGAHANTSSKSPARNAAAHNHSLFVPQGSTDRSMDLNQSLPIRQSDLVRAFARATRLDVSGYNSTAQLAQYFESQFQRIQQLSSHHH

Large T antigen = Large T antigen (Simian virus 40, UniProt P03070); assay type: functional, Betapolyomavirus macacae;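 also: Confirmatory-stage PubChem screen for compounds that inhibit SV40 T antigen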
[5] = biological target: Intestinal-type alkaline phosphatase (Homo sapiens, UniProt P09923); test: activation of human intestinal alkaline phosphatase – biochemical, dose response (AID 488873); assay type: functional
[6] = biological target: T3, Zinc finger protein mex-5 (Caenorhabditis elegans, UniProt Q9XUB2); test: MEX-5/TCR-2 RNA interaction inhibitors, dose response, biochemical, C. elegans, fluorescence polarization (AID 1960)
T3 sequence (Q9XUB2 whole entry): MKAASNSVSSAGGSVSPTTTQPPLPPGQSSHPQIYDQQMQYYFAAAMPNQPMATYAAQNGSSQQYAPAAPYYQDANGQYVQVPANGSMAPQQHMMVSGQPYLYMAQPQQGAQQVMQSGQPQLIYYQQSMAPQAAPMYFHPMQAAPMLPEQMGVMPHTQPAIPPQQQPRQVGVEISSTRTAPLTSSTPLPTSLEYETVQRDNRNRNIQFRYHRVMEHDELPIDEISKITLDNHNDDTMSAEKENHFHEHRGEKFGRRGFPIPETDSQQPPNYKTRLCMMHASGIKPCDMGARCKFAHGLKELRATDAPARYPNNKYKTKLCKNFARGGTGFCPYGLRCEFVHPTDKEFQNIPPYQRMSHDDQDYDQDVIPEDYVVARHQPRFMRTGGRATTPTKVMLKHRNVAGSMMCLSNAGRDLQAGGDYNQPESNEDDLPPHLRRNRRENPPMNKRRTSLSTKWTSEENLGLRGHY

Albumin = Albumin (Bos taurus, UniProt P02769); test: Counterscreen for inhibitors of T-cell receptor (TCR)-CD3 interaction: Fluorescence-based biochemical high throughput dose response assay to identify inhibitors of T-cell receptor (TCR)-CD3 interaction using a TAMRA-labeled BSA probe.; assay type: functional
[7] = biological target: T4, Alkaline phosphatase, tissue-nonspecific isozyme (Homo sapiens, UniProt P05186); test: TNAP enzyme inhibition by screening hits, dose response, selectivity assay for mouse IAP inhibitor project, biochemical, human TNAP, uHTS hits (AID 488906); assay type: functional
T4 sequence (P05186 whole entry): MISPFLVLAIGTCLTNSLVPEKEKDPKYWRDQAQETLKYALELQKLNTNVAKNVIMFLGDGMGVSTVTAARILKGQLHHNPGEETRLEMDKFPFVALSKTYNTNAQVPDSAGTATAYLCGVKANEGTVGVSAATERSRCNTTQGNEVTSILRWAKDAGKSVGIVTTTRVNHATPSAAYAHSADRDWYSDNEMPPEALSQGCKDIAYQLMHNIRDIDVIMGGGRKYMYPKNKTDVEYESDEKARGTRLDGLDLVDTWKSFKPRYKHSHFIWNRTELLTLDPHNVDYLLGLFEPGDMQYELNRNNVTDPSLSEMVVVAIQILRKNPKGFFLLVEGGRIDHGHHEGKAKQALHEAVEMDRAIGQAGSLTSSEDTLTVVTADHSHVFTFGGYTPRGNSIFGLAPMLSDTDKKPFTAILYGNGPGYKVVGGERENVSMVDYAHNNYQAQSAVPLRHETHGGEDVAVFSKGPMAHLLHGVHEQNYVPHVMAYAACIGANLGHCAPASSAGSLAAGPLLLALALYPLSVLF

[8] = biological target: Sphingosine 1-phosphate receptor 5 (Homo sapiens, UniProt Q9H228); test: Late stage counterscreen assay for S1P4 antagonists: Fluorescence dose response cell-based screening assay for antagonists of the Sphingosine 1-Phosphate Receptor 5 (S1P5). [Related pubchem assays (depositor defined):AID1510, AID1524, AID1692, AID1853, AID2332, AID489009, AID489017]; assay type: functional
[9] = biological target: Sphingosine 1-phosphate receptor 2 (Homo sapiens, UniProt O95136); test: Late stage counterscreen assay for S1P4 antagonists: Fluorescence dose response cell-based screening assay for antagonists of the Sphingosine 1-Phosphate Receptor 2 (S1P2). [Related pubchem assays (depositor defined):AID1510, AID1524, AID1692, AID1853, AID2332, AID489009, AID489017]; assay type: functional
[10] = biological target: Sphingosine 1-phosphate receptor 3 (Homo sapiens, UniProt Q99500); test: Late stage counterscreen assay for S1P4 antagonists: Fluorescence dose response cell-based screening assay for antagonists of the Sphingosine 1-Phosphate Receptor 3 (S1P3). [Related pubchem assays (depositor defined):AID1510, AID1524, AID1692, AID1853, AID2332, AID489009, AID489017]; assay type: functional
[11] = biological target: Sphingosine 1-phosphate receptor 1 (Homo sapiens, UniProt P21453); test: Late stage counterscreen assay for S1P4 antagonists: Fluorescence dose response cell-based screening assay for antagonists of the Sphingosine 1-Phosphate Receptor 1 (S1P1). [Related pubchem assays (depositor defined):AID1510, AID1524, AID1692, AID1853, AID2332, AID489009, AID489017]; assay type: functional

Chain of Ras and Rab interactor 1/Tyrosine-protein kinase ABL1 (P00519 whole entry): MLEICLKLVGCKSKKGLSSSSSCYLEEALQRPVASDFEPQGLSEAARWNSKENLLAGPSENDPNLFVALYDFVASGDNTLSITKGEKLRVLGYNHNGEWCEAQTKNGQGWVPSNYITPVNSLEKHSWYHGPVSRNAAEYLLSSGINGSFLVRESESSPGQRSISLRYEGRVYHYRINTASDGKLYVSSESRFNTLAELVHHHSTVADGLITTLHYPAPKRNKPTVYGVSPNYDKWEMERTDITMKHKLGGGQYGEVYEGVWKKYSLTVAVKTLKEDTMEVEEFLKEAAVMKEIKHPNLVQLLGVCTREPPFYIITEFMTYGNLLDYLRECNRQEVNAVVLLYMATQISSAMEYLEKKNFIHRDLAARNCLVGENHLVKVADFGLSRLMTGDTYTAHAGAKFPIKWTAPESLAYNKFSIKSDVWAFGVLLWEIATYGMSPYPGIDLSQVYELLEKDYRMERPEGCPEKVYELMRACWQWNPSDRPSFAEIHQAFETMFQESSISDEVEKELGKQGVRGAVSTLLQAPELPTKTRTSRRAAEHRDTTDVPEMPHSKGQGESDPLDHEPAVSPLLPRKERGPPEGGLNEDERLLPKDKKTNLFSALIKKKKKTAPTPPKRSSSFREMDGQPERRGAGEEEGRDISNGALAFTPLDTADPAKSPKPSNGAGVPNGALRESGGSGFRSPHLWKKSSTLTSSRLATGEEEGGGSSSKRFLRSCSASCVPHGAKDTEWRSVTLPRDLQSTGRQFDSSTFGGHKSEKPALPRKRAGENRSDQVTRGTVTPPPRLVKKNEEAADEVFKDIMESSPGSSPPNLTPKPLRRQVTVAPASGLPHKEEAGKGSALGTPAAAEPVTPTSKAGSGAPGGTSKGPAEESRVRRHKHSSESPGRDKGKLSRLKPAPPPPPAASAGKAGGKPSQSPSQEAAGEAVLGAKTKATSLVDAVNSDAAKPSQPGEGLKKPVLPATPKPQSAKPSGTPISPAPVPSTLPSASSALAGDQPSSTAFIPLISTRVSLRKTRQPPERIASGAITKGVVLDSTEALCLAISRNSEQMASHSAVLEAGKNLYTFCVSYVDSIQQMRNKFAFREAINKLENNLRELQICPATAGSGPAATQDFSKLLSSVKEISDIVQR
Chain of Ras and Rab interactor 1/Tyrosine-protein kinase ABL1 (Q13671 whole entry): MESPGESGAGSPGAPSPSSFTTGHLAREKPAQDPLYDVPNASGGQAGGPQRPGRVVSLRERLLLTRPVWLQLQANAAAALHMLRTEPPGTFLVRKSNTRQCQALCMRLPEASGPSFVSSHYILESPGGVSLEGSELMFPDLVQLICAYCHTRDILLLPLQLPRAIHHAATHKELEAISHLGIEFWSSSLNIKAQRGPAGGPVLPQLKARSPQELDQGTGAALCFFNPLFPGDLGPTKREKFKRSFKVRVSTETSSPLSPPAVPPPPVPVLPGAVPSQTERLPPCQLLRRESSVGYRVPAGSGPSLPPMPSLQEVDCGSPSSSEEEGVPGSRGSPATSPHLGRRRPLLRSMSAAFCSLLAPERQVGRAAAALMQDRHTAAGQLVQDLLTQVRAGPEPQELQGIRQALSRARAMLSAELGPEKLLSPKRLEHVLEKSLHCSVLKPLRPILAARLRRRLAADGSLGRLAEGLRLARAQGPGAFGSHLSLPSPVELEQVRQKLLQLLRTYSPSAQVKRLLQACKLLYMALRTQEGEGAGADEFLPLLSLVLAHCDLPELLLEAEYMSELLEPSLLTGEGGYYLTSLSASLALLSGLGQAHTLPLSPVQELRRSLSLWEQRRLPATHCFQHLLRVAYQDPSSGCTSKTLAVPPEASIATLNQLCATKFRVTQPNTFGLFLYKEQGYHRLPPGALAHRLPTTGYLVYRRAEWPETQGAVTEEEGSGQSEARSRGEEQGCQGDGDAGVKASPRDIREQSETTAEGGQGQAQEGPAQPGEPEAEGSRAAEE
Chain of Albumin (P02769 whole entry): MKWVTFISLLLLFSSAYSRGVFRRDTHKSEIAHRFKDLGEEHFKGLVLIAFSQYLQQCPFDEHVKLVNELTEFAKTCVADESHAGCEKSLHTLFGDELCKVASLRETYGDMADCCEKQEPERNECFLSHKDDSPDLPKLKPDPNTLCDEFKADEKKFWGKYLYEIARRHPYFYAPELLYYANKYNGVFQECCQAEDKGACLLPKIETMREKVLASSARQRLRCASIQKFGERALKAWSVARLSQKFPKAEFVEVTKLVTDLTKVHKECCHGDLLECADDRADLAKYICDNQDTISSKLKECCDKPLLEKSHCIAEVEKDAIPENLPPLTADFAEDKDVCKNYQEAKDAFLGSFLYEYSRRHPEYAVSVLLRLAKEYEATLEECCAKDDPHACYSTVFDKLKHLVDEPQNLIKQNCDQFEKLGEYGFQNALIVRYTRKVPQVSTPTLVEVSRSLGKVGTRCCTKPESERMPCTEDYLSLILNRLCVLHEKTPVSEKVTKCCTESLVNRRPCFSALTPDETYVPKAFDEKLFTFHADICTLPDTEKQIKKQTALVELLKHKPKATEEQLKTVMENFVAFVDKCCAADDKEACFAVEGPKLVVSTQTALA
Chain of Intestinal-type alkaline phosphatase (Homo sapiens, UniProt P09923) (P09923 whole entry): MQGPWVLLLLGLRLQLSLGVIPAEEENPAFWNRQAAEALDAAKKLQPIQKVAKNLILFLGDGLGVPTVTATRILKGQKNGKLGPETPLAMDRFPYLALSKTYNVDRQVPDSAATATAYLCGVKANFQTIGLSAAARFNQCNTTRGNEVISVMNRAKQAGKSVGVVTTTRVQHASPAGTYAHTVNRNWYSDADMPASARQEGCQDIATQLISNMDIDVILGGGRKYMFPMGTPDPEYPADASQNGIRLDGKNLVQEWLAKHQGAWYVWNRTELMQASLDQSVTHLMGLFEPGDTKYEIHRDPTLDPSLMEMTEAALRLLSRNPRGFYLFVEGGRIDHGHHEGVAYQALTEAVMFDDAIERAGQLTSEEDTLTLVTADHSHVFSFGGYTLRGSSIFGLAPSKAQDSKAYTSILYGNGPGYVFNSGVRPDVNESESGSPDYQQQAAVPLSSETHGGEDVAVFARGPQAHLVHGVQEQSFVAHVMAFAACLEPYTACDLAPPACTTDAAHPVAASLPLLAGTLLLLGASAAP
Chain of Sphingosine 1-phosphate receptor 3 (Q99500 whole entry): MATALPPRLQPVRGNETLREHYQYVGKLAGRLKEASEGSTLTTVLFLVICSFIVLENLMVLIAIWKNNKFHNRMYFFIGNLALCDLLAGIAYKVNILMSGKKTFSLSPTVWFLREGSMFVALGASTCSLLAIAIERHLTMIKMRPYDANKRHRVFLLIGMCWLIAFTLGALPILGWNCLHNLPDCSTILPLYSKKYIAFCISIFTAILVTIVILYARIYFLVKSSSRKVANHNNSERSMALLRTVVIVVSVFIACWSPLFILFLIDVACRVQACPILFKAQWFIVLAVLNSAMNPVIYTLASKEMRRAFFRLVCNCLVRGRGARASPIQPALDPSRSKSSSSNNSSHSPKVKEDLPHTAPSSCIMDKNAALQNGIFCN
Chain of Sphingosine 1-phosphate receptor 2 (O95136 whole entry): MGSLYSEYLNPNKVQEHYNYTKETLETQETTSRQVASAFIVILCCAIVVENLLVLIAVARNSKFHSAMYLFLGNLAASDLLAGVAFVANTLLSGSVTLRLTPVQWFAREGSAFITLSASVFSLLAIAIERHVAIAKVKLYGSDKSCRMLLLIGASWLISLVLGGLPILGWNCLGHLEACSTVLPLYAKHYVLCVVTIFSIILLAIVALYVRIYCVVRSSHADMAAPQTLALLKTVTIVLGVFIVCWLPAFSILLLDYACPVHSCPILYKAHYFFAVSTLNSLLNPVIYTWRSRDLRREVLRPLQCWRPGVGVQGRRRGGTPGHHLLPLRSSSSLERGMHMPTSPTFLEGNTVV
Chain of Sphingosine 1-phosphate receptor 5 (Q9H228 whole entry): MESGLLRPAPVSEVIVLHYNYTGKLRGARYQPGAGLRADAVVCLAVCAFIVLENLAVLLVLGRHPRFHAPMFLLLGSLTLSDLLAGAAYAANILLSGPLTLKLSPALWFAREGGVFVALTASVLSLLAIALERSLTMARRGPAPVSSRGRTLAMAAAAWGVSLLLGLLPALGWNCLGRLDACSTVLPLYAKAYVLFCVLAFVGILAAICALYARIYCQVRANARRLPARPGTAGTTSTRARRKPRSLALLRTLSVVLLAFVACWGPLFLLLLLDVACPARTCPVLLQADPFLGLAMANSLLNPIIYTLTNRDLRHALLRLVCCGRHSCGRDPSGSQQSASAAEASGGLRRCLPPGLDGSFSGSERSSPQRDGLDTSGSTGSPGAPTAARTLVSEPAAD
Chain of Intestinal-type alkaline phosphatase (Mus musculus, UniProt P24822) (P24822 whole entry, the tested form may be a part): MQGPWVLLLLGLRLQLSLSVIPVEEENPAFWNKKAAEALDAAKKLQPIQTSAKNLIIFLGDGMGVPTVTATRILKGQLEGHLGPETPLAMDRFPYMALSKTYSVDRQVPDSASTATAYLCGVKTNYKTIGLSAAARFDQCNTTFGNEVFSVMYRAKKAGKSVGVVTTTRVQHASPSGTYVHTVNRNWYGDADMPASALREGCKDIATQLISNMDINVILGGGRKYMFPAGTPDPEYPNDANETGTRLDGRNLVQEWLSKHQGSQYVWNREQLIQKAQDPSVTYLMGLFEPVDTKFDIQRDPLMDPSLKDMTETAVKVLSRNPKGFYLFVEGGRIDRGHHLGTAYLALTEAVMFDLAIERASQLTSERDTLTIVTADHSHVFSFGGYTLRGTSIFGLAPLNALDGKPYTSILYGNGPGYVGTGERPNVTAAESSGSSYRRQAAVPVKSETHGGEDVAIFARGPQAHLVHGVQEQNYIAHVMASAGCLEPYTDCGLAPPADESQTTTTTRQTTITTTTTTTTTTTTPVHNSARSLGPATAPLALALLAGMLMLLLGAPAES

Row | IC50 [8] | IC50 [9] | IC50 [10] | IC50 [11] | Structure (SMILES) | IC50 [1] | IC50 [2] | IC50 [3] | EC50 [4] | IC50 (Large T antigen) | EC50 [5] | EC50 [6] | IC50 (Albumin) | IC50 [7]
1 |  |  |  |  | Oc1ccc(C[C@H]2NCCc3cc(O)c(O)cc32)cc1O | 0.47 µM (active) | 2.33 µM (active) | 8.06 µM (active) | 6.36 µM (active) | 9.06 µM (active) | > 100 µM (inactive) | 5.43 µM (active) | > 94.1 µM (inactive) | 10.1 µM (active)
2 | > 25 µM (inactive) | > 25 µM (inactive) | > 25 µM (inactive) | > 25 µM (inactive) | Cc1cscc1-c1ccc(C(=O)Nc2c(C)cccc2C)o1 |  |  |  |  |  |  |  |  | 
